Results taken from article PMC9388697 (Biometals : an international journal on the role of metal …, 2022).

Biological target: Mar2 (Thermoanaerobacterium thermosaccharolyticum, UniProt D9TSN9, K173F/K351T)
Assay: lactate racemase activity, L-lactate determined with Megazyme kit
Type: biochemical
Conditions: 200 mM D-lactate; in vitro synthesized NPN; 35 °C; 30 min

C[C@@H](O)C(=O)O [D-lactate] was tested, and the “% of TtLarA activity” value was “a small but substantial lactate racemase (Lar) activity was detected for the purified enzymes”.
